# Reference: a melting point compilation (Tetko et al.; mined from patent text by program, amines drawn as free bases though some values may be those of a salt)
row,melting point,Structure (SMILES)
1,263 to 264 °C,CCOC(=O)Cc1ccc(NC(=O)N2CCn3c(c(C(N)=O)c(C#N)c3C3CC3)C2)cc1
2,55 to 56 °C,CCC(=S)c1ccc(C)cc1
3,115 to 116 °C,N#Cc1c(Cl)c(Cl)n(CC#CI)c1-c1ccc(Cl)c(Cl)c1
4,96 to 100 °C,CN1C(=O)CC[C@]2(C)c3ccc(Sc4nc5cc([N+](=O)[O-])ccc5s4)cc3CC[C@@H]12
5,109 to 110 °C,CCOC(=O)c1ccc(C=C(C)c2cc3c(cc2C)C(C)(C)CCC3(C)C)cc1
6,189 to 194 °C,COc1cccc(CN(CCC(=O)O)c2nc(NC(=O)Nc3ccccc3OC)nc(Oc3ccc4ccccc4c3)n2)c1
7,161 to 163 °C,COc1ccc(-c2ocnc2-c2cc(OC)c(O)c(OC)c2)cc1F
8,95 to 97 °C,CC(C)(C)OC(=O)NC(=NS(=O)(=O)C(F)(F)F)NC(=O)OCc1ccccc1
9,202 to 204 °C,CCSc1nc(=O)n(CC(C)(C)C)c(=O)n1N
10,89 to 90 °C,CN(C)C(=O)n1oc(CCl)cc1=O
11,86 to 88 °C,FC(F)(F)Oc1cccc(-c2nc(-c3ccccn3)no2)c1
12,248 to 250 °C,N#Cc1c(-c2ccc(F)cc2)cc2c3c1ccn3C(=O)CNC2
13,203 to 205 °C,CC(=O)c1cc2cc(OCC(=O)O)c(Cl)c(Cl)c2s1
14,152 to 154 °C,CCOC(=O)N1CCN(C2=C(Cl)C(=O)c3nsnc3C2=O)CC1
15,99 to 100 °C,Cn1c(=O)c2ccccc2n(CCCCCl)c1=O
16,140 °C,CC(C)(C)C(=O)C(=CC(=O)c1ccc(Cl)cc1)n1cncn1
17,192 to 195 °C,CC1CCCCC1NC(=O)C1=C(C(=O)Nc2cc(OC3CCCC3)c(Cl)cc2F)CCCC1 (stereo not drawn)
18,173 to 174 °C,CC(=O)Nc1cc2c(cc1[N+](=O)[O-])OC(C)(C)O2
19,110 to 111 °C,Fc1ccccc1-c1nc2cnccc2o1
20,82.5 to 85.5 °C,NS(=O)(=O)Oc1ccc(F)cc1
21,71 to 73 °C,O=C(O)CCCCCCNC(=O)C(CS)Cc1ccccc1 (stereo not drawn)
22,> 290 °C,CC(=O)Nc1cc(NC(C)=O)cc([N+](=O)[O-])c1
23,226 to 231 °C,Cc1nc(-c2ccc(N(C)C)cc2)sc1C(=O)O
24,176 to 178 °C,CC(=O)N=C(O)c1cc(C(O)=NCCOC(C)=O)c(C(=O)O)cc1C(=O)O

row,melting point,Structure (SMILES)
1,129 to 131 °C,COc1ccc(OC)c(C(=O)c2cc3ccc(OC)cc3o2)c1
2,51 to 52 °C,CCCCCCCCSC(=O)CS(=O)(=O)Nc1c(C(C)C)cccc1C(C)C
3,104 to 106 °C,CCC(CC)Nc1nc(N)nc(C(C)(C)F)n1
4,115 to 122 °C,CNS(=O)(=O)c1ccsc1C(=O)OC
5,> 300 °C,NC(=O)Cc1c(Cl)cnc2c(NC(=O)c3c(Cl)cccc3Cl)cccc12
6,168 to 170 °C,Cc1c(F)ccc(C(=O)O)c1F
7,233 to 235 °C,CCOc1ccc(-c2ccc3c(c2)C=C(C(=O)Nc2ccc(CN(C)C4CCOCC4)cc2)CCS3(=O)=O)cc1F
8,61 °C,CCCCCC(CCC(=O)c1ccc(OCC)cc1)C(=O)O (stereo not drawn)
9,220 to 240 °C,Cn1ccnc1Sc1ccc(Nc2c(C#N)cnc3cc(/C=C/CO)ccc23)cc1Cl
10,111 to 115 °C,Cc1cc(N)ccc1NC(=O)c1ccc(N)cc1
11,173 to 175 °C,CC1=CCC(NC(=O)NS(=O)(=O)c2ccc(CCNC(=O)N3CCC(C)CC3=O)cc2)CC1 (stereo not drawn)
12,213 to 215 °C,CCCCOc1ccc(Cc2cc3c(cn2)COC3)cc1
13,149 to 151 °C,O=C(NNc1ccc(NC(=S)Nc2ccccc2)cc1)c1ccccc1
14,204 to 206 °C,COc1ccc(CNc2cc(C(c3cc(F)ccc3F)S(=O)(=O)c3ccc(Cl)cc3)c(Cl)cn2)cc1OC (stereo not drawn)
15,76 °C,CSSc1ccc([N+](=O)[O-])cc1C(Cl)(Cl)Cl
16,162 to 163 °C,CCc1noc(-c2cn(-c3ccccn3)cn2)n1
17,251 to 253 °C,COc1ccc([N+](=O)[O-])c2c1CCC(C(=O)Nc1ccc(N3CCOCC3)cc1)C2 (stereo not drawn)
18,265 to 266 °C,CC1(C)CCc2c(-c3ccoc3)nc3sc4c(NCc5ccncc5)ncnc4c3c2C1
19,180 to 184 °C,O=S1(=O)NCN(CCF)c2cc(Cl)cc(Cl)c21
20,150 to 151 °C,O=C(O)CCc1ccc(NC(=O)C(COC2CCCCO2)NS(=O)(=O)c2ccc(Cl)cc2)cc1 (racemic)
21,85 to 89 °C,O=C(O)CCSc1ccccc1CNC(=O)C1Cc2ccccc2N1S(=O)(=O)c1ccc(-c2cccc(C(F)(F)F)c2)cc1 (stereo not drawn)
22,140 to 141 °C,CN(C)C(=O)COC(=O)c1ccc(Cl)cc1OCC(=O)N(C)C
23,247 to 248 °C,Cc1cc(Nc2cc(F)c(F)cc2C(=O)O)n(-c2ccccn2)n1
24,192 to 194 °C,O=C1NCCCc2cc(CCN3CCC(c4noc5cc(F)ccc45)CC3)sc21

row,melting point,Structure (SMILES)
1,294 to 296 °C,CC(=O)OCC(=O)C1=CCC2C3CCC4=CC(=O)C=CC4(C)C3(F)C(OC(C)=O)CC12C (stereo not drawn)
2,206 to 209 °C,CCC(CC)Oc1cc(C)nc2c1COCN2c1c(C)cc(Br)cc1C
3,140 to 143 °C,CCCNc1ccc(C(=O)N2CCCC(CC(=O)NC(C)C)c3ccccc32)c(Cl)c1 (stereo not drawn)
4,110 to 111 °C,COCC1CC(c2ccc3ccccc3c2C#N)=NO1 (stereo not drawn)
5,171 to 172 °C,COc1cc(COc2nn(-c3ccccc3)cc2C=O)ccc1OCc1sc(-c2ccccc2)nc1C
6,114 to 115 °C,Cc1nn(CCO)c(C)c1Oc1cc(Cl)cc(Cl)c1
7,99 to 100 °C,OC(C#CI)(c1ccc(-c2ccccc2)cc1)c1cccc(Cl)c1 (stereo not drawn)
8,164 to 165 °C,CC(=O)Nc1nc(CCc2ccc(CCC(=O)O)s2)cs1
9,170 to 171 °C,COc1cc(OC)cc(C(=O)N2CCc3cc(O)ccc3C2)c1
10,73 to 75 °C,CCCCCCCCCCCCN(N)C(=O)NC
11,280 °C,O=C(O)CSc1nc(-n2cc(C3c4ccccc4C=Cc4ccccc43)c(=S)[nH]c2=O)ncc1-c1ccc(CC(=O)O)cc1
12,156 °C,CC(C)(C)NC(=O)NN1CC=CCC1
13,201 to 202 °C,NC(=O)c1sc2ccc(Br)cc2c1-c1ccccc1
14,157 °C,O=S(=O)(c1ccccc1)C(Cc1ccccc1)c1ccc(C(O)(C(F)(F)F)C(F)(F)F)cc1 (stereo not drawn)
15,138 to 140 °C,CC(=O)Oc1c(C)c(C)c2c(c1C)CCC(C)(COc1ccc(N)cc1)O2 (stereo not drawn)
16,55 to 56 °C,CC(=O)OCCc1ccc(-c2csc(=O)s2)cc1
17,216 to 217 °C,Cc1ccc(OCC2=NCCN2)c(C)c1NS(C)(=O)=O
18,140 °C,Clc1ccc(C(c2ccccc2)(c2ncc[nH]2)c2ncc[nH]2)cc1
19,149 °C,N#Cc1ccc(-c2ccc(F)cc2)nc1
20,184 to 193 °C,CC(CCCc1ccccc1)c1cc2oc(=O)c3c(c2cc1O)CCCC3 (stereo not drawn)
21,214 to 217 °C,CC(C)Cn1c(C(C)(C)O)nc2c(N)nc3ccccc3c21
22,77 to 78 °C,Brc1cn2cncc2s1

row,Structure (SMILES),melting point
1,N#CCn1nnnc1S,116 to 118 °C
2,CC(=O)c1cc(C)c(NC(=O)c2cc(C(F)(F)F)nn2-c2ncccc2Cl)c(C(=O)NC(C)C)c1,135 to 137 °C
3,CC(O)=C(C#N)C(=O)Nc1cc(Br)ccc1Br,148 to 150 °C
